Measured values reported in patent US9744181B2, “Compositions and methods for combination antiviral therapy” (priority 2003, dated 2017).
Where a name gives a salt, the structure may show the parent alone.

Experiments:
HIV replication = details: in combination with PMPA, d4T, ddC, nelfinavir, ritonavir, and saquinavir; cited from earlier work
[1] = combination tablet, six months at 40° C./75% RH; for loss in % label strength: with desiccant, significant defined as ≧5% degradation
HIV = details: patients, once-a-day dose of 200 mg
[2] = test system: normal human bone marrow progenitor cells; details: AZT together with recombinant interferon-α; cited from earlier work
HIV-1 = details: in combination with recombinant soluble CD4 castanosperinine and recombinant interferon-α; cited from earlier work

## CC(C)(C)C(=O)OCOP(=O)(COCCn1cnc2c(N)ncnc21)OCOC(=O)C(C)(C)C [Adefovir dipivoxil]
HIV replication
  synergy of inhibition of HIV replication: minor to moderate synergistic inhibition

## Nc1nc(=O)n([C@@H]2CS[C@H](CO)O2)cc1F (single isomer, unassigned) [Emtricitabine]
[1]
  loss in % label strength: No significant loss
HIV
  average reduction of viral load: 99%

## Cc1cn([C@H]2C[C@H](N=[N+]=[N-])[C@@H](CO)O2)c(=O)[nH]c1=O [AZT, 3′-azido, 3′-deoxythymidine]
[2]
  cytotoxic effect: increased cytotoxic effect
HIV-1
  synergy of antiviral activity in vitro: synergistic antiviral activity

## CC(C)OC(=O)OCOP(=O)(CO[C@H](C)Cn1cnc2c(N)ncnc21)OCOC(=O)OC(C)C [Tenofovir disoproxil fumarate, 9-[(R)-2-[[bis[[(isopropoxycarbonyl)oxy]methoxy]phosphinyl]methoxy]propyl]adenine fumarate (1:1)]
[1]; packaged and stored with 3 grams of desiccant
  increase in the total degradation products: 1.5%
[1]
  loss in % label strength: No significant loss
